Measurements from patent publication US6723897B2, “Methods for controlling gibberellin levels” (Monsanto Technology, LLC, priority 1998, dated 2004).

Key:
[1] = Half-lives of 14C-labelled GA compounds in planta; settings: Asgrow 3237, soybean (Glycine max), in vivo
Description: ^14C-radiolabelled compounds are obtained from Lew Mander (Australian National University). ^14C-GA3 is dissolved in water:ethanol, 80:20, v/v; ^14C-GA9 and ^14C-GA12 are dissolved in 100% ethanol. Seeds of Asgrow 3237 soybeans are treated separately with solutions of each of the ^14C-radiolabelled compounds (1.7-6.8 μg; 10-40 ppm; 111,000-2,000,000 dpm/seed) by placing one to four μl of the dosing solution directly on the seed coat (^14C-GA3, GA9, and GA12), or on the hilum portion of the seed (^14C-GA3). After evaporation of the carrier solvent (approx. one hour), the treated seed is planted in containers containing approximately 30 gm of Metromix-350, and transferred to a growth chamber. Plants are grown under a 12 hour light/12 hour dark regime at 92° F. (33° C.)and 75% humidity. The pattern of uptake and translocation of ^14C-radioactivity in treated seed is monitored up to 12 days past initial treatment. For most experiments, three replicate plants are harvested at one hour after treatment, one day after treatment (DAT), two DAT, three DAT, six or seven DAT, and 12 DAT. […] The level of ^14C-radioactivity in different plant parts is determined by extraction of plant tissues with aqueous methanol and scintillation counting. The extent of metabolism of the ^14C-labelled GA compounds in planta is determined by HPLC analysis of plant extracts. […]
The general extraction procedure consisted of blending the plant parts in a high speed polytron tissue homogenizer for 1-5 minutes with 10-20 ml of ice-cold methanol:water, 80:20, v/v, followed by vacuum filtration through a Whatman glass fiber filter. The filter cake is re-extracted as necessary using the procedure described above until an insignificant amount of radioactivity is removed. Prior to combining the extracts from each sample, aliquots are weighed and analyzed by liquid scintillation counting (LSC) to determine the amount of extracted radioactivity in each extract. Aliquots of the air-dried filter cakes are combusted and analyzed by LSC in order to determine the amount of non-extracted radioactivity. […]

[2] = test system: non-transgenic soybean line A4922; assay: Field trial of seed coatings under soil compaction / different soils, wild-type soybean; assay type: in vivo, Glycine max; settings: for Count (emergence) / Height (total plant height): A4922
Description: The second trial (data reported in Tables 22-24) tested the precursors under conditions of soil compaction.
As noted above, the second trial tested the noted precursors under conditions of soil compaction. These experiments are performed in the same manner as in the first trial, except that the soil is compacted with an all-terrain vehicle.
“Height” equals total plant height in cm.

[3] = test system: wild-type soybean line A4922; assay: Field trial of seed coating application rates, wild-type soybean
Description: GA3, GA3-3-acetate, GA5, GA9, and GA12 are evaluated in further field trials. […] The objectives of these tests are: 1) to determine if seed coatings, as compared to imbibition, of GA compounds facilitate rescue of constitutively GA-deficient transgenic dwarf soybeans (transgenic lines 719−2 plus 719+17) without causing elongation of wild-type soybeans (line A4922), and 2) to determine the seed treatment rate ranges for each of the selected GA compounds that would provide rescue of constitutively GA-deficient transgenic dwarf soybeans (transgenic lines 719−2 plus 719+17) without causing elongation of wild-type soybeans (line A4922).
Seeds are treated with GA3, GA5, GA9, GA12, and GA3-3-acetate at rates of 0, 0.1, 1, 10, and 100 μg/seed. These GA compounds are applied to the seeds using a Hege 11 seed treater (Hans-Ulrich Hege GmbH & Co., Waldenburg, Germany); 100% acetone is used as the carrier solvent. The amount of liquid introduced into the seed treater is six fluid ounces/100 lbs seed rate. In addition, GA12 is tested at 50 μg/seed. The untreated control (UTC) consisted of dry, untreated seeds. Seeds of constitutively GA-deficient transgenic dwarf soybean line 719 and wild-type A4922 are sown in both light and heavy soil. The planting depth is 0.5 to 1 inch (1.27 to 2.54 cm); watering is via drip irrigation. The experiment is carried out in three repetitions, using 25 seeds/plot (one five foot (152.4 cm) long row) for line 719, and 75 seeds/plot (two eight foot (243.8 cm) rows) for line A4922. Observations included total emergence, number of dwarfs not rescued, uniformity in plant height, average plant height, visual notes, and digital photos.
In all the experiments reported in Tables 17-24, treatments are replicated three times in a randomized block design. Data are analyzed using LSD (least significant difference) 0.05 probability using the PRM 5.0 Statistical Analysis Program (SAS Institute, North Carolina).

[4] = Heavy soil - Loose, target rate 0.5 μg/seed, Table 23
[5] = Heavy soil - Loose, target rate 4.0 μg/seed, Table 23
[6] = Heavy soil - Loose, target rate 8.0 μg/seed, Table 23
[7] = Heavy soil - Loose, target rate 16.0 μg/seed, Table 23
[8] = Heavy soil - compacted, target rate 0.5 μg/seed, Table 23
[9] = Heavy soil - compacted, target rate 4.0 μg/seed, Table 23
[10] = Heavy soil - compacted, target rate 8.0 μg/seed, Table 23
[11] = Heavy soil - compacted, target rate 16.0 μg/seed, Table 23
[12] = Heavy soil - loose, target rate 0.5 μg/seed, Table 22
[13] = Heavy soil - loose, target rate 2.0 μg/seed, Table 22
[14] = Light soil - Compacted, target rate 0.5 μg/seed, Table 22
[15] = Light soil - Compacted, target rate 2.0 μg/seed, Table 22
[16] = Light soil - Loose, target rate 0.5 μg/seed, Table 24
[17] = Light soil - Loose, target rate 2.0 μg/seed, Table 24
[18] = Light soil - Loose, target rate 4.0 μg/seed, Table 24
[19] = Light soil - compacted, target rate 0.5 μg/seed, Table 24
[20] = Light soil - compacted, target rate 2.0 μg/seed, Table 24
[21] = Light soil - compacted, target rate 4.0 μg/seed, Table 24

C=C1C[C@]23C[C@@]1(O)CC[C@H]2[C@@]12C=C[C@H](O)[C@@](C)(C(=O)O1)[C@H]2[C@@H]3C(=O)O [GA3, gibberellic acid]
half-life [1]: 48 to 72 h
Count (emergence) [2, 4]: 25.0 cde
Height (total plant height) [2, 4]: 5.0 efg cm
Count (emergence) [2, 5]: 24.7 de
Height (total plant height) [2, 5]: 8.7 a cm
Count (emergence) [2, 6]: 29.3 a-d
Height (total plant height) [2, 6]: 6.3 cde cm
Count (emergence) [2, 7]: 24.7 dc
Height (total plant height) [2, 7]: 7.0 bc cm
Count (emergence) [2, 8]: 8.3 cd
Height (total plant height) [2, 8]: 4.3 b-e cm
Count (emergence) [2, 9]: 4.0 de
Height (total plant height) [2, 9]: 8.0 a cm
Count (emergence) [2, 10]: 9.7 a-d
Height (total plant height) [2, 10]: 6.0 bc cm
Count (emergence) [2, 11]: 6.3 cde
Height (total plant height) [2, 11]: 6.7 ab cm
Count (emergence) [2, 12]: 25 cde
Height (total plant height) [2, 12]: 5.0 efg cm
Count (emergence) [2, 13]: 21 ef
Height (total plant height) [2, 13]: 6.7 bcd cm
Count (emergence) [2, 14]: 28 bcd
Height (total plant height) [2, 14]: 5.7 def cm
Count (emergence) [2, 15]: 13 ef
Height (total plant height) [2, 15]: 8.0 c cm
Count (emergence) [2, 16]: 43.0 abc
Height (total plant height) [2, 16]: 7.0 ef cm
Count (emergence) [2, 17]: 38.3 bc
Height (total plant height) [2, 17]: 9.0 cd cm
Count (emergence) [2, 18]: 37.7 c
Height (total plant height) [2, 18]: 10.3 b cm
Count (emergence) [2, 19]: 28.3 bcd
Height (total plant height) [2, 19]: 5.7 def cm
Count (emergence) [2, 20]: 12.7 ef
Height (total plant height) [2, 20]: 8.0 c cm
Count (emergence) [2, 21]: 7.7 f
Height (total plant height) [2, 21]: 10.3 b cm
emergence at approximately equivalent biological response (height) ([2]; compacted soil, FIG. 40): 68%
A4922 Height, cm, Heavy soil ([3]; 0.1 μg compound per seed): 5.7 efg cm
A4922 Height, cm, Light soil ([3]; 0.1 μg compound per seed): 6.7 fg·cm
No. A4922 Emerged, Heavy soil ([3]; 0.1 μg compound per seed): 28.0 c-g
No. A4922 Emerged, Light soil ([3]; 0.1 μg compound per seed): 42.7 e-i
A4922 Height, cm, Heavy soil ([3]; 1 μg compound per seed): 6.0 efg cm
A4922 Height, cm, Light soil ([3]; 1 μg compound per seed): 8.3 ef cm
No. A4922 Emerged, Heavy soil ([3]; 1 μg compound per seed): 16.7 g
No. A4922 Emerged, Light soil ([3]; 1 μg compound per seed): 36.3 i
A4922 Height, cm, Heavy soil ([3]; 10 μg compound per seed): 10.3 cm·days
A4922 Height, cm, Light soil ([3]; 10 μg compound per seed): 12.7 cm·days
No. A4922 Emerged, Heavy soil ([3]; 10 μg compound per seed): 28.7 c-g
No. A4922 Emerged, Light soil ([3]; 10 μg compound per seed): 39.7 f-j
A4922 Height, cm, Heavy soil ([3]; 100 μg compound per seed): 21.0 a cm
A4922 Height, cm, Light soil ([3]; 100 μg compound per seed): 27.0 ab cm
No. A4922 Emerged, Heavy soil ([3]; 100 μg compound per seed): 19.7 efg
No. A4922 Emerged, Light soil ([3]; 100 μg compound per seed): 38.0 hi
